Consider one compound from patent US6699681B2, “Endothelin converting enzymes and the amyloid β peptide” (Mayo Foundation for Medical Education and Research, priority 2000, dated 2004).

For one experiment, the system named is neuronal cell lines. The note with it: previously shown; cited from earlier work.
Another experiment relates to H4 cells. Briefly: Removal of synthetic Aβ spiked into culture medium of H4 cells. The conditions noted are these: incubated 6 or 24 hrs, presence vs absence of phosphoramidon. It is filed as cell-based, human. The procedure: Human and guinea pig Aβ40 or Aβ42 was measured in plasma by sandwich ELISA as previously described (Suzuki et al., 1994, Science, 264:1336-1340) using the BAN-50/BA-27 or BAN-50/BC-05 antibody systems, respectively (Takeda; Japan). Hamster Aβ40- or Aβ42-derived from CHO cells was measured using the BNT-77/BA-27 or BNT-77/BC-05 antibody systems, respectively. Aβ concentration in samples was determined by comparison to synthetic Aβ40 or Aβ42 standards (Bachem, Switzerland). Data was obtained from triplicate wells. […] Plates were read at 450 nm in a SpectraMax Plus spectrophotometer (Molecular Devices; Sunnyvale, Calif.) and analyzed by SOFTmax® PRO software. Aβ40 or Aβ42 were quantitated by comparison with the values obtained for each synthetic Aβ standard from the same plate. To exclude the possibility that the phosphoramidon-induced effect was due to inhibition of extracellular degradation and/or internalization of Aβ by H4 cells, synthetic Aβ was spiked into the culture medium, incubated for 6 or 24 hrs, and the amount of synthetic Aβ remaining in the medium was determined by sandwich ELISA. […] Intracellular Aβ has not been convincingly detected in H4 cells, presumably due to rapid secretion of the peptide.

The subject of experiment [1] is Aβ concentration in plasma. Briefly: Treatment of guinea pigs with phosphoramidon, plasma Aβ by sandwich ELISA. It is filed as in vivo, guinea pig. The note with it: guinea pigs treated intravenously. The procedure:
Animal experiments were conducted within the United States Department of Agriculture (USDA) and the National Institute of Health (NIH) guidelines for animal use and care. To prevent clotting and to facilitate the collection of plasma, each animal was given 100 USP units/kg heparin sodium salt (Sigma, St. Louis, Mo.) administered intraperitoneally (IP) prior to experimentation. Animals were anesthetized with a single IP injection of 0.9 mg/kg acepromazine maleate (Fermenta, Kansas City, Mo.) combined with 90 mg/kg Ketaset (Fort Dodge Laboratories, Fort Dodge, Iowa). […] During the entire operation, the animal's temperature was periodically monitored and anesthesia maintained by further intraperitoneal injections as necessary. […] Data was obtained from at least 2 animals, with the Aβ in each sample measured at least twice.
Human and guinea pig Aβ40 or Aβ42 was measured in plasma by sandwich ELISA as previously described (Suzuki et al., 1994, Science, 264:1336-1340) using the BAN-50/BA-27 or BAN-50/BC-05 antibody systems, respectively (Takeda; Japan). Hamster Aβ40- or Aβ42-derived from CHO cells was measured using the BNT-77/BA-27 or BNT-77/BC-05 antibody systems, respectively. Aβ concentration in samples was determined by comparison to synthetic Aβ40 or Aβ42 standards (Bachem, Switzerland). […]
On the technique in general: An ELISA detects its analyte on a solid surface through an enzyme-linked reagent.

The next experiment relates to H4 neuroglioma cells. The note with it: reported; cited from earlier work.

“Also recorded” adds a separate entry of the source.

Turning to `CC(C)C[C@H](NP(=O)(O)O[C@@H]1O[C@@H](C)[C@H](O)[C@@H](O)[C@H]1O)C(=O)N[C@@H](Cc1c[nH]c2ccccc12)C(=O)O` [phosphoramidon], in the experiment with neuronal cell lines, the “increase in the concentration of Aβ40 and Aβ42 in the conditioned medium” value is reported as 2- to 3 fold. Moreover, in the experiment with H4 cells, the “removal of synthetic Aβ spiked into the culture medium” value is “removed equally; also recorded: not affected”. The “Aβ concentration in the plasma” value in experiment [1] is listed as “dose-dependent, rapid increase”. Further, the “extracellular Aβ concentration” value with H4 neuroglioma cells is “significant increase”.
